Source: paper PMC6128612, “Prodrugs for colon-restricted delivery: Design, synthesis, and in vivo evaluation of colony stimulating factor 1 receptor (CSF1R) inhibitors” (PLoS ONE, 2018)
Like-named read-outs stand apart in the source and are kept apart here.

Legend:
PAMPA permeability = assay type: in vitro ADME
[1] = test system: Mouse bone marrow derived macrophages (BMDM); test: Mouse macrophage differentiation assay (CSF-induced); assay type: cell-based
Protocol: Mouse bone marrow derived macrophages (BMDM) were isolated as previously described[53] from C57BL/6 female mice. The isolated cells were washed using standard growth medium (RPMI (Gibco cat# 11875–093) with 2 mM L-glutamine (Gibco cat# 25033), 1% Pen/Strep (Gibco cat# 15140), 10% heat inactivated fetal bovine serum (HI-FBS, Gibco cat# 10438), and 0.1% beta-mercaptoethanol (BME, Gibco cat# 21985–023)), and filtered through a […] cell strainer (Falcon cat# 352360). Cells were counted, re-suspended in growth medium, and plated at 1x10^5 viable cells per well in a 96 well plate (Corning cat# 3603). Inhibitors were added at various concentrations to the cells, and incubated at 37°C/5% CO2 for 30 minutes. Recombinant mouse macrophage colony stimulating factor (M-CSF, R&D cat# 416-ML-010) was added to the plates at a final concentration of […]. Plates were transferred to a 37°C/5% CO2 incubator for 5 days. On the fifth day, supernatant was removed from each well and Cell Titer Glo (Promega cat#G7571) was added. Plates were covered from the light and incubated at room temperature for 10 minutes before reading the luminescence on an EnVision plate reader (PerkinElmer).

CSF1R = CSF1R (Homo sapiens, UniProt P07333); test: CSF1R enzyme activity (TR-FRET binding displacement, kinase panel)
Protocol: TR-FRET-based binding displacement studies using active site probes were used to assess kinome selectivity of inhibitor molecules.[54] The concentrations of components for each purified kinase were based on optimized conditions with ranges as follows: kinases (1.25–12.5 nM), Oregon Green-labeled fluorescent probes (2x KD of probe to the particular kinase; range of 1–200 nM; in-house), terbium anti-His or anti-GST antibody (0.5–2 nM). The reaction buffer was diluted to 1x using ddH2O and contained 1 mM DTT.
Compounds were typically tested from 0.0001 to 10 μM in 10x dilutions. Reactions were carried out in a 20 μL volume in 384-well plates by combining kinase, probe, antibody, and test compound and allowing the reaction to come to equilibrium (incubation of 2 h). TR-FRET was then measured on a PerkinElmer Envision plate reader (excitation at 340 nm; emission at 520 and 495 nm). Competition by the test compound versus the fluorescent probe for the ATP binding site of the kinase was quantified by calculating the IC50 value based on a four-parameter logistic curve fit.

[2] = Per rectal versus oral dosing of active parent: colon, liver, plasma exposure; assay type: in vivo; details: mouse
Protocol: Prior to dosing, mice were anaesthetized with Isoflurane and fecal material was removed from colons by irrigating with 0.5 mL of PBS using a syringe fitted with a 22 gauge flexible gavage needle. After a 20 min wake up period, mice were again anesthetized and drug was administered in a volume of 0.1–0.2 mL using a syringe fitted with a 22 gauge flexible gavage needle. Mice were then placed in the anesthesia chamber for 40 min in a supine position with hind end elevated to ensure drug remained in colon. After 40 min, mice were removed from the chamber and blood sampling over time (via tail nick) began.
(§1) Active Parent–Male CD1 mice (N = 3) received a single oral administration of compound 1 at 30 mg/kg prepared as a nanosuspension in 2% HPC-SL, 0.2% SDS in water and dosed at 10 ml/kg. Active Parent Prodrugs–Male CD1 mice or female C57BL/6 mice (N = 3) received a single oral adminstration of prodrug at 30 mg/kg active parent equivalent in either 10% Cremophor EL + 90% 1% Na-carboxymethylcellulose (NaCMC) at 10 ml/kg or as a nanosuspension in 2% HPC-SL, 0.2% SDS in water at 10 ml/kg.Blood samples were taken over 11 hours, and colon samples were taken at 3, 6 and/or 11 hours post dose. Mice received either Teklad Global Diet 2014 (Envigo Teklad, Madison, WI or LabDiet #5010 (LabDiet, St. Louis, MO).
(§2) Due to the inherent risk of fecal or PR-dosed material contaminating true levels of colon tissue exposure, careful flushing of colon tissue for drug analysis was required. Upon necropsy, a section of mouse colon was removed, and flushed with PBS until no visible fecal material was observed. Subsequently, a 1–2 cm section of colon was blotted dry, weighed and snap-frozen in liquid nitrogen.
(§3) Colon tissue (~50 mg) was diluted 10x in Veterinary Sterile Water for Irrigation (USP by Abbott), then 1.4 mm zirconium oxide beads were added and tissue was homogenized using an Omni Bead Ruptor 24 (Omni International, Kennesaw, GA). Aliquots of colon homogenate samples and a set of colon standards were pipetted in 96-well plates and subjected to protein precipitation extraction (with acetonitrile + internal standard) on a Microlab Star robot (Hamilton Robotics, Reno, NV). Plates were then mixed on a MixMate (Eppendorf, Hamburg, Germany) for 1 min at 1600 rpm and centrifuging for 5 min at 4000 rpm in 5810 R Centrifuge (Eppendorf, Hamburg, Germany). Supernatant was transferred into new plates and diluted with LC-MS/MS mobile phase.
(§4) Spiked standards were prepared in the appropriate matrices. All unknown samples and spiked standards were combined with acetonitrile containing internal standard, vortexed, and centrifuged to pellet the proteins. Supernatants were used for subsequent analysis by LC-MS/MS. The mobile phase consisted of acetonitrile with 0.1% formic acid, and water with 0.1% formic acid at a flow rate of 0.8 mL/min. Analytes were separated using reverse phase chromatography with a fast gradient on a 30 x 2.1 mm Fortis C18 Pace […] column, prior to analysis on a Sciex API5500™ mass spectrometer. Peak areas were determined using Sciex Analyst™ 1.6 software. Actual concentrations were calculated by regression analysis of the peak area ratio (parent / internal standard) of the spiked standards versus concentration.

[3] = Pharmacokinetic studies of active parent in mice; assay type: in vivo; details: mouse; for clearance: male, CD1, blood, read-out: Blood Clearance (total clearance) (converted); for clearance / Blood Clearance (unbound clearance, CLb/fub): 1 mg/kg IV, N = 2–3; for FaFg: 1 mg/kg, F/Fh (compound 6) or AUCoral/AUCip
Protocol: Male CD1 mice on Teklad Global Diet 2014 (Envigo Teklad, Madison, WI) (n = 2–3 per study) received a single IV, oral or intraperitoneal (IP) administration of compounds 1, 4, 5 or 6 at 1 mg/kg in 2:5:20:73 (v/v) DMSO:Tween 80:PEG-400:D5W dosed at 10 ml/kg. Serial blood samples were taken over 24h and frozen at −20°C until analysis. Pharmacokinetic parameters after IP or PO dosing were calculated by noncompartmental methods, while pharmacokinetic parameters after IV dosing were calculated by compartmental methods using WinNonlin (version 5.2, Certara USA Inc., St. Louis, MO). Mean parameters were determined from 1–3 separate studies. FaFg was determined as F/Fh (compound 6) or as the ratio of AUC after an oral dose to that after an IP dose (AUCoral/AUCip).

[4] = Oral administration of prodrugs to mice: colon, plasma, feces exposure; assay type: in vivo; details: mouse; for Prodrug levels in plasma after oral dosing / Prodrug plasma concentration, fold lower than active parent 1: dose equal to 30 mg/kg of 1; for Plasma versus colon levels of active parent 1 after oral prodrug: dose equal to 30 mg/kg of 1, 3 and 11 h
Protocol: as §1, §2, §3, §4

[5] = Plasma stability in vitro; assay type: in vitro ADME, mouse
[6] = PK experiment dosing hemi-succinate 15 IV or PO; assay type: in vivo, mouse; details: IV or PO 1 mg/kg; 0.5 to 12 h
[7] = CSF-induced mouse macrophage differentiation, mean from n ≥3 experiments, read-out: Mouse Mac EC50
[8] = Mus musculus, adjusted for binding in 10% FBS, read-out: Cellular EC50 corrected for binding in 10% FBS

Chain of CSF1R (P07333 20-972): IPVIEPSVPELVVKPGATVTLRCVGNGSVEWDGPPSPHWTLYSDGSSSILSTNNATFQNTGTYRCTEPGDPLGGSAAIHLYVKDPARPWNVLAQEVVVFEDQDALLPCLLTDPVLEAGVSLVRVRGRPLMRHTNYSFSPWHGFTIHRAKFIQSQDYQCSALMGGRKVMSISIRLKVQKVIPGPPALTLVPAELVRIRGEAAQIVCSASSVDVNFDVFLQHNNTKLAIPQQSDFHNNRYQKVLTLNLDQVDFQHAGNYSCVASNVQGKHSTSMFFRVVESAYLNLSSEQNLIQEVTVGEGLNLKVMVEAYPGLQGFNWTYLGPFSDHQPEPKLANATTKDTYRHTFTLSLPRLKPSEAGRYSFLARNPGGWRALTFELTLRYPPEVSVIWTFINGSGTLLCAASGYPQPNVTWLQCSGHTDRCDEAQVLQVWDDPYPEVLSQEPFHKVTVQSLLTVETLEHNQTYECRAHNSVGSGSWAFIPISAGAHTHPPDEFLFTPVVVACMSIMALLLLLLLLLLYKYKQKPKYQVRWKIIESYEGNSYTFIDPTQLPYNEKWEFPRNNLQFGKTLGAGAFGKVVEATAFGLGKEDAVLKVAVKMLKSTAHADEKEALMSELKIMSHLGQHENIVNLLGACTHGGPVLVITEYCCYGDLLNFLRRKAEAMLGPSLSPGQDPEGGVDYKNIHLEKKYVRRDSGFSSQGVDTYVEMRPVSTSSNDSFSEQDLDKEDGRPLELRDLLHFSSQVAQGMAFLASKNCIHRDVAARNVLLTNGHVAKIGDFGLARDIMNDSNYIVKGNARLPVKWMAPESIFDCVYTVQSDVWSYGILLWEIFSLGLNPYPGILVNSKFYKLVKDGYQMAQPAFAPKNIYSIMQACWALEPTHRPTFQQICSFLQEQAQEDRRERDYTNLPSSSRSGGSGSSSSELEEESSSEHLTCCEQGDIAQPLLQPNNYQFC

| Papp (PAMPA permeability) | EC50 [1, 7] | EC50 [1, 8] | IC50 (CSF1R) | clearance [3] | Blood Clearance (unbound clearance, CLb/fub) [3] | FaFg [3] | Prodrug levels in plasma after oral dosing [4] | Compound | also measured |
| --- | --- | --- | --- | --- | --- | --- | --- | --- | --- |
| 15.6 ×10⁻⁶ cm/s | 113 nM | 0.022 µg/mL | < 10 nM | 75 mL/min/kg | 2500 mL/min/kg | 43% | – | O[C@H]1CC[C@H](n2cc(Nc3nc(C4CCCCC4)cn4ncnc34)cn2)CC1 [Compound 1, (1r,4r)-4-(4-((6-Cyclohexyl-[1,2,4]triazolo[1,5-a]pyrazin-8-yl)amino)-1H-pyrazol-1-yl)cyclohexanol] | Kp at 1 h ([2]; colon and plasma, other: per rectal (PR), PR 30 mg/kg, 1 h, read-out: colon:plasma ratio (unbound)): 22; Kp at 3 h ([2]; male, CD1, colon and plasma, PO 30 mg/kg, 3 h, read-out: colon:plasma ratio (unbound)): 0.5; Mean colon unbound Cmax ([2]; PO 30 mg/kg, 3 h): 9 ng/g; colon:liver ratio (unbound) ([2]; PO 30 mg/kg, 3 h): 0.34 x; Mean colon unbound Cmax ([2]; PR 30 mg/kg, 1 h): 67 ng/g; colon:liver ratio (unbound) ([2]; PR 30 mg/kg, 1 h): 7 x; Compound in the colon at the terminal time point ([2]; PR 30 mg/kg, 11 h): Lack of compound detection in the colon; 1 h colon exposure versus cellular EC50 ([2]; PR 30 mg/kg, unbound): exceeded the cellular EC50; 1 h plasma exposure exceeding cellular EC50 ([2]; PR 30 mg/kg, unbound): did not |
| 14.1 ×10⁻⁶ cm/s | 245 nM | 0.019 µg/mL | < 10 nM | 108 mL/min/kg | 1700 mL/min/kg | 18% | – | OCCn1cc(Nc2nc(C3CCCCC3)cn3ncnc23)cn1 [Compound 4, 2-(4-((6-Cyclohexyl-[1,2,4]triazolo[1,5-a]pyrazin-8-yl)amino)-1H-pyrazol-1-yl)ethanol] | – |
| 8.7 ×10⁻⁶ cm/s | 104 nM | 0.021 µg/mL | < 10 nM | 80 mL/min/kg | 3280 mL/min/kg | 32% | – | CC(C)(O)CCn1cc(Nc2nc(C3CCCCC3)cn3ncnc23)cn1 [Compound 5, 4-(4-((6-Cyclohexyl-[1,2,4]triazolo[1,5-a]pyrazin-8-yl)amino)-1H-pyrazol-1-yl)-2-methylbutan-2-ol] | – |
| 14.6 ×10⁻⁶ cm/s | 196 nM | 0.042 µg/mL | < 10 nM | 16.7 mL/min/kg | 317 mL/min/kg | 35% | – | O=C(O)[C@H]1CC[C@H](n2cc(Nc3nc(C4CCCCC4)cn4ncnc34)cn2)CC1 [Compound 6] | – |

More lines, now with the values behind:

| Compound | Papp (PAMPA permeability) | EC50 [1, 7] | EC50 [1, 8] | IC50 (CSF1R) | clearance [3] | Blood Clearance (unbound clearance, CLb/fub) [3] | FaFg [3] | Prodrug levels in plasma after oral dosing [4] | also measured |
| --- | --- | --- | --- | --- | --- | --- | --- | --- | --- |
| CN(C)CC(=O)OC1CCC(n2cc(Nc3nc(C4CCCCC4)cn4ncnc34)cn2)CC1 (stereo not drawn) [Compound 7, (1r,4r)-4-(4-((6-Cyclohexyl-[1,2,4]triazolo[1,5-a]pyrazin-8-yl)amino)-1H-pyrazol-1-yl)cyclohexyl 2-(dimethylamino)acetate] | – | – | – | – | – | – | – | no prodrug levels were measurable in plasma | Plasma versus colon levels of active parent 1 after oral prodrug [4]: significantly higher plasma versus colon drug levels; Stability in plasma [5]: not stable in plasma |
| CC(C)C(N)C(=O)OC1CCC(n2cc(Nc3nc(C4CCCCC4)cn4ncnc34)cn2)CC1 [Compound 8, (R)-(1r,4r)-4-(4-((6-Cyclohexyl-[1,2,4]triazolo[1,5-a]pyrazin-8-yl)amino)-1H-pyrazol-1-yl)cyclohexyl 2-amino-3-methylbutanoate] | – | – | – | – | – | – | – | – | Prodrug plasma concentration, fold lower than active parent 1 [4]: ~ 10 x; Plasma versus colon levels of active parent 1 after oral prodrug [4]: significantly higher plasma versus colon drug levels |
| OCC1OC(OC2CCC(n3cc(Nc4nc(C5CCCCC5)cn5ncnc45)cn3)CC2)C(O)C(O)C1O [Compound 9, (2R,3R,4S,5S,6R)-2-(((1r,4r)-4-(4-((6-Cyclohexyl-[1,2,4]triazolo[1,5-a]pyrazin-8-yl)amino)-1H-pyrazol-1-yl)cyclohexyl)oxy)-6-(hydroxymethyl)tetrahydro-2H-pyran-3,4,5-triol] | – | – | – | – | – | – | – | – | Prodrug plasma concentration, fold lower than active parent 1 [4]: ~ 100 x |
| OCC1OC(OC2CCC(n3cc(Nc4nc(C5CCCCC5)cn5ncnc45)cn3)CC2)C(O)C(O)C1O [Compound 10, (2S,3R,4S,5S,6R)-2-(((1r,4s)-4-(4-((6-cyclohexyl-[1,2,4]triazolo[1,5-a]pyrazin-8-yl)amino)-1H-pyrazol-1-yl)cyclohexyl)oxy)-6-(hydroxymethyl)tetrahydro-2H-pyran-3,4,5-triol] | – | – | – | – | – | – | – | no measureable plasma levels | – |
| O=C(O)C1OC(OC2CCC(n3cc(Nc4nc(C5CCCCC5)cn5ncnc45)cn3)CC2)C(O)C(O)C1O [Compound 11, (2S,3S,4S,5R,6R)-6-(((1r,4r)-4-(4-((6-Cyclohexyl-[1,2,4]triazolo[1,5-a]pyrazin-8-yl)amino)-1H-pyrazol-1-yl)cyclohexyl)oxy)-3,4,5-trihydroxytetrahydro-2H-pyran-2-carboxylic acid] | – | – | – | – | – | – | – | no measureable plasma levels | – |
| O=C(O)CCC(=O)O[C@H]1CC[C@H](n2cc(Nc3nc(C4CCCCC4)cn4ncnc34)cn2)CC1 [Compound 15, 4-(((1r,4r)-4-(4-((6-Cyclohexyl-[1,2,4]triazolo[1,5-a]pyrazin-8-yl)amino)-1H-pyrazol-1-yl)cyclohexyl)oxy)-4-oxobutanoic acid] | – | – | – | – | – | – | – | – | Stability in plasma [5]: not stable in mouse plasma in vitro; CSF1R enzyme activity inhibition (CSF1R): able to inhibit CSF1R enzyme activity; Plasma levels of 15 [6]: no detectable plasma levels of 15 |
